{"source": "patent US20240376056A1", "about": "“PHENYL ACETAMIDE BASED IL-17A MODULATORS AND USES THEREOF” (DiCE Alpha, Inc., priority 2021, published 2024)", "molecular_target": "T1, IL-17A/A (Homo sapiens, UniProt Q16552)", "T1 construct": "purchased Genscript Z03228", "T1 sequence (Q16552 24-155)": "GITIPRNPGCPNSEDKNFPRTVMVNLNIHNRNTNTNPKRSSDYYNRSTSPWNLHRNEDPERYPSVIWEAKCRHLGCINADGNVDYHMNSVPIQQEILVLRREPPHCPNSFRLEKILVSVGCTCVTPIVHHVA", "assay": "HEK-Blue IL-17A/A inhibition assay (SEAP reporter)", "type": "cell-based", "details": "HEK-Blue cells (HEK 293 expressing IL-17RA, IL-17RC, Act1); IL-17A/A stimulation; 20 hours; SEAP read at A630; 4-parameter fit", "in_short": "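IC50 from a 4-parameter fit of SEAP signal (Quanti-Blue, A630) after 20 h co-incubation of compound and IL-17A/A. Reporter line: HEK 293 expressing IL-17RA, IL-17RC and Act1 with NFκB-SEAP; compound top final 10, 1 or 0.3 uM, DMSO 0.1% final.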", "data": [{"smiles": "CCn1ncc(F)c1C(=O)N[C@H](C(=O)Nc1ccc([C@H](C)C(=O)N(C)CC(F)(F)F)cc1F)C(C1CC1)C1CC1", "note": "[Compound 79, N-((S)-1,1-dicyclopropyl-3-((2-fluoro-4-((S)-1-(methyl(2,2,2-trifluoroethyl)amino)-1-oxopropan-2-yl)phenyl)amino)-3-oxopropan-2-yl)-1-ethyl-4-fluoro-1H-pyrazole-5-carboxamide]", "values": [{"measurement": "IC50", "result": "0.1 to 1", "unit": "µM"}]}, {"smiles": "CCc1nocc1C(=O)N[C@H](C(=O)Nc1ccc([C@H](C)C(=O)N(C)CC(F)(F)F)cc1F)C(C1CC1)C1CC1", "note": "[Compound 80, N-((S)-1,1-dicyclopropyl-3-((2-fluoro-4-((S)-1-(methyl(2,2,2-trifluoroethyl)amino)-1-oxopropan-2-yl)phenyl)amino)-3-oxopropan-2-yl)-3-ethylisoxazole-4-carboxamide]", "values": [{"measurement": "IC50", "result": "< 0.1", "unit": "µM"}]}, {"smiles": "CC(C)n1nccc1C(=O)N[C@H](C(=O)Nc1ccc([C@H](C)C(=O)NCC(F)(F)F)cc1F)C(C1CC1)C1CC1", "note": "[Compound 82, N-((S)-1,1-dicyclopropyl-3-((2-fluoro-4-((S)-1-oxo-1-((2,2,2-trifluoroethyl)amino)propan-2-yl)phenyl)amino)-3-oxopropan-2-yl)-1-isopropyl-1H-pyrazole-5-carboxamide]", "values": [{"measurement": "IC50", "result": "< 0.1", "unit": "µM"}]}, {"smiles": "CCn1ncc(F)c1C(=O)N[C@H](C(=O)Nc1ccc([C@H](C)C(=O)NCC(F)(F)F)cc1F)C(C1CC1)C1CC1", "note": "[Compound 83, N-((S)-1,1-dicyclopropyl-3-((2-fluoro-4-((S)-1-oxo-1-((2,2,2-trifluoroethyl)amino)propan-2-yl)phenyl)amino)-3-oxopropan-2-yl)-1-ethyl-4-fluoro-1H-pyrazole-5-carboxamide]", "values": [{"measurement": "IC50", "result": "> 1", "unit": "µM"}]}, {"smiles": "CCc1nocc1C(=O)N[C@H](C(=O)Nc1ccc([C@H](C)C(=O)NCC(F)(F)F)cc1F)C(C1CC1)C1CC1", "note": "[Compound 84, N-((S)-1,1-dicyclopropyl-3-((2-fluoro-4-((S)-1-oxo-1-((2,2,2-trifluoroethyl)amino)propan-2-yl)phenyl)amino)-3-oxopropan-2-yl)-3-ethylisoxazole-4-carboxamide]", "values": [{"measurement": "IC50", "result": "< 0.1", "unit": "µM"}]}, {"smiles": "CC[C@@H](c1ccc(F)cc1)[C@H](NC(=O)c1ccnn1CC)C(=O)Nc1ccc([C@H](C)C(=O)N(C)CC(F)(F)F)cc1F", "note": "[Compound 85, -ethyl-N-((2S,3S)-1-((2-fluoro-4-((S)-1-(methyl(2,2,2-trifluoroethyl)amino)-1-oxopropan-2-yl)phenyl)amino)-3-(4-fluorophenyl)-1-oxopentan-2-yl)-1H-pyrazole-5-carboxamide]", "values": [{"measurement": "IC50", "result": "0.1 to 1", "unit": "µM"}]}, {"smiles": "CCn1nccc1C(=O)N[C@H](C(=O)Nc1ccc([C@H](C)C(=O)NCC(F)(F)F)cc1F)C(C1CCC1)C1CCC1", "note": "[Compound 88, N-((S)-1,1-dicyclobutyl-3-((2-fluoro-4-((S)-1-oxo-1-((2,2,2-trifluoroethyl)amino)propan-2-yl)phenyl)amino)-3-oxopropan-2-yl)-1-ethyl-1H-pyrazole-5-carboxamide]", "values": [{"measurement": "IC50", "result": "0.1 to 1", "unit": "µM"}]}, {"smiles": "C[C@H](C(=O)NCC(F)(F)F)c1ccc(NC(=O)[C@@H](NC(=O)c2ccnn2CCN2CCOCC2)C(C2CC2)C2CC2)c(F)c1", "note": "[Compound 89, N-((S)-1,1-dicyclopropyl-3-((2-fluoro-4-((S)-1-oxo-1-((2,2,2-trifluoroethyl)amino)propan-2-yl)phenyl)amino)-3-oxopropan-2-yl)-1-(2-morpholinoethyl)-1H-pyrazole-5-carboxamide]", "values": [{"measurement": "IC50", "result": "0.1 to 1", "unit": "µM"}]}, {"smiles": "CCn1nccc1C(=O)N[C@H](C(=O)Nc1ccc([C@H](C)C(=O)N(C)CC(F)(F)F)cc1F)[C@H]1CCc2ccccc21", "note": "[Compound 90, N-((S)-1-((S)-2,3-dihydro-1H-inden-1-yl)-2-((2-fluoro-4-((S)-1-(methyl(2,2,2-trifluoroethyl)amino)-1-oxopropan-2-yl)phenyl)amino)-2-oxoethyl)-1-ethyl-1H-pyrazole-5-carboxamide]", "values": [{"measurement": "IC50", "result": "0.1 to 1", "unit": "µM"}]}, {"smiles": "CCn1nccc1C(=O)N[C@H](C(=O)Nc1ccc([C@H](C)C(=O)N(C)CC(F)(F)F)cc1F)[C@@H]1CCc2ccccc21", "note": "[Compound 91, N-((S)-1-((R)-2,3-dihydro-1H-inden-1-yl)-2-((2-fluoro-4-((S)-1-(methyl(2,2,2-trifluoroethyl)amino)-1-oxopropan-2-yl)phenyl)amino)-2-oxoethyl)-1-ethyl-1H-pyrazole-5-carboxamide]", "values": [{"measurement": "IC50", "result": "> 1", "unit": "µM"}]}, {"smiles": "C[C@H](C(=O)NCC(F)(F)F)c1ccc(NC(=O)[C@@H](NC(=O)c2ccnn2CCN2CC(F)(F)C2)C(C2CC2)C2CC2)c(F)c1", "note": "[Compound 94, N-((S)-1.1-dicyclopropyl-3-((2-fluoro-4-((S)-1-oxo-1-((2,2,2-trifluoroethyl)amino)propan-2-yl)phenyl)amino)-3-oxopropan-2-yl)-1-(2-(3,3-difluoroazetidin-1-yl)ethyl)-1H-pyrazole-5-carboxamide]", "values": [{"measurement": "IC50", "result": "0.1 to 1", "unit": "µM"}]}, {"smiles": "C[C@H](C(=O)NCC(F)(F)F)c1ccc(NC(=O)[C@@H](NC(=O)c2ccnn2CCn2ccnc2)C(C2CC2)C2CC2)c(F)c1", "note": "[Compound 95, -(2-(1H-imidazol-1-yl)ethyl)-N-((S)-1,1-dicyclopropyl-3-((2-fluoro-4-((S)-1-oxo-1-((2,2,2-trifluoroethyl)amino)propan-2-yl)phenyl)amino)-3-oxopropan-2-yl)-1H-pyrazole-5-carboxamide]", "values": [{"measurement": "IC50", "result": "0.1 to 1", "unit": "µM"}]}, {"smiles": "CC(C)n1nccc1C(=O)N[C@H](C(=O)Nc1ccc([C@H](C)C(=O)NCC(F)(F)CN)cc1F)C(C1CC1)C1CC1", "note": "[Compound 100, N-((S)-1-((4-((S)-1-((3-amino-2,2-difluoropropyl)amino)-1-oxopropan-2-yl)-2-fluorophenyl)amino)-3,3-dicyclopropyl-1-oxopropan-2-yl)-1-isopropyl-1H-pyrazole-5-carboxamide]", "values": [{"measurement": "IC50", "result": "> 1", "unit": "µM"}]}, {"smiles": "CC(C)n1nccc1C(=O)N[C@H](C(=O)Nc1ccc([C@H](C)C(=O)N2CCNCC2C(F)(F)F)cc1F)C(C1CC1)C1CC1", "note": "(stereo partly drawn) [Compound 101, N-((2S)-1,1-dicyclopropyl-3-((2-fluoro-4-((2S)-1-oxo-1-(2-(trifluoromethyl)piperazin-1-yl)propan-2-yl)phenyl)amino)-3-oxopropan-2-yl)-1-isopropyl-1 H-pyrazole-5-carboxamide]", "values": [{"measurement": "IC50", "result": "> 1", "unit": "µM"}]}, {"smiles": "C[C@H](C(=O)N(C)CC(F)(F)F)c1ccc(NC(=O)[C@@H](Nc2nccn3nccc23)C(C2CC2)C2CC2)c(F)c1", "note": "[Compound 106, (S)-3,3-dicyclopropyl-N-(2-fluoro-4-((S)-1-(methyl(2,2,2-trifluoroethyl)amino)-1-oxopropan-2-yl)phenyl)-2-(pyrazolo[1,5-a]pyrazin-4-ylamino)propenamide]", "values": [{"measurement": "IC50", "result": "> 1", "unit": "µM"}]}, {"smiles": "CC(C)n1nccc1C(=O)N[C@H](C(=O)Nc1ccc(C(C)(C)C(=O)NCC(F)(F)F)cc1F)C(C1CC1)C1CC1", "note": "[Compound 107, (S)-N-(1.1-dicyclopropyl-3-((2-fluoro-4-(2-methyl-1-oxo-1-((2,2,2-trifluoroethyl)amino)propan-2-yl)phenyl)amino)-3-oxopropan-2-yl)-1-isopropyl-1H-pyrazole-5-carboxamide]", "values": [{"measurement": "IC50", "result": "0.1 to 1", "unit": "µM"}]}, {"smiles": "CCc1cc(NC(=O)[C@@H](NC(=O)c2ccnn2C(C)C)C(C2CC2)C2CC2)c(F)cc1[C@H](C)C(=O)NCC(F)(F)F", "note": "[Compound 111, N-((S)-1,1-dicyclopropyl-3-((5-ethyl-2-fluoro-4-((S)-1-oxo-1-((2,2,2-trifluoroethyl)amino)propan-2-yl)phenyl)amino)-3-oxopropan-2-yl)-1-isopropyl-1H-pyrazole-5-carboxamide]", "values": [{"measurement": "IC50", "result": "< 0.1", "unit": "µM"}]}, {"smiles": "CCc1cc(NC(=O)[C@@H](NC(=O)c2ccnn2C(C)C)C(C2CC2)C2CC2)c(F)cc1[C@@H](C)C(=O)NCC(F)(F)F", "note": "[Compound 112, N-((S)-1,1-dicyclopropyl-3-((5-ethyl-2-fluoro-4-((R)-1-oxo-1-((2,2,2-trifluoroethyl)amino)propan-2-yl)phenyl)amino)-3-oxopropan-2-yl)-1-isopropyl-1H-pyrazole-5-carboxamide]", "values": [{"measurement": "IC50", "result": "0.1 to 1", "unit": "µM"}]}, {"smiles": "CCCNC(=O)Cc1ccc(NC(=O)[C@@H](NC(=O)c2ccnn2CC)C2CCCCCC2)c(F)c1", "note": "[Compound 114, (S)-N-(1-cycloheptyl-2-((2-fluoro-4-(2-oxo-2-(propylamino)ethyl)phenyl)amino)-2-oxoethyl)-1-ethyl-1H-pyrazole-5-carboxamide]", "values": [{"measurement": "IC50", "result": "> 1", "unit": "µM"}]}, {"smiles": "CC(C(=O)NCC(F)(F)F)c1cc(F)c(NC(=O)[C@@H](NC(=O)c2ccnn2C(C)C)C(C2CC2)C2CC2)cc1CN", "note": "(stereo partly drawn) [Compound 119, N-((2S)-1-((5-(aminomethyl)-2-fluoro-4-(1-oxo-1-((2,2,2-trifluoroethyl)amino)propan-2-yl)phenyl)amino)-3,3-dicyclopropyl-1-oxopropan-2-yl)-1-isopropyl-1H-pyrazole-5-carboxamide]", "values": [{"measurement": "IC50", "result": "0.1 to 1", "unit": "µM"}]}, {"smiles": "CC(C)n1nccc1C(=O)N[C@H](C(=O)Nc1ccc([C@H](C)C(=O)N2CCC(N)C2)cc1F)C(C1CC1)C1CC1", "note": "(stereo partly drawn) [Compound 132, N-((2S)-1-((4-((2S)-1-(3-aminopyrrolidin-1-yl)-1-oxopropan-2-yl)-2-fluorophenyl)amino)-3,3-dicyclopropyl-1-oxopropan-2-yl)-1-isopropyl-1H-pyrazole-5-carboxamide]", "values": [{"measurement": "IC50", "result": "> 1", "unit": "µM"}]}, {"smiles": "CC1CN(C(=O)[C@@H](C)c2ccc(NC(=O)[C@@H](NC(=O)c3ccnn3C(C)C)C(C3CC3)C3CC3)c(F)c2)C(C(F)(F)F)CO1", "note": "(stereo partly drawn) [Compound 135, N-((2S)-1,1-dicyclopropyl-3-((2-fluoro-4-((2S)-1-(2-methyl-5-(trifluoromethyl)morpholino)-1-oxopropan-2-yl)phenyl)amino)-3-oxopropan-2-yl)-1-isopropyl-1H-pyrazole-5-carboxamide]", "values": [{"measurement": "IC50", "result": "0.1 to 1", "unit": "µM"}]}, {"smiles": "CC(=O)NC1CCN(C(=O)[C@@H](C)c2ccc(NC(=O)[C@@H](NC(=O)c3ccnn3C(C)C)C(C3CC3)C3CC3)c(F)c2)C1", "note": "(stereo partly drawn) [Compound 136, N-((2S)-1-((4-((2S)-1-(3-acetamidopyrrolidin-1-yl)-1-oxopropan-2-yl)-2-fluorophenyl)amino)-3,3-dicyclopropyl-1-oxopropan-2-yl)-1-isopropyl-1H-pyrazole-5-carboxamide]", "values": [{"measurement": "IC50", "result": "> 1", "unit": "µM"}]}]}
